Legend:
[1] = cited from earlier work
IOP [2] = test: Efficacy of other gabapentinoid drugs (IOP, viscous eye drops); type: in vivo; conditions: 0.9% drug in 2% HPMC viscous eye drops, C57Bl/6 J mice
Source text: To determine if other members of the gabapentinoid drug family are also efficacious in reducing IOP, we compared the efficacy of 0.9% pregabalin, 0.9% 2-phenylglycine and 0.9% gabapentin in 2% HPMC viscous eye drops in C57Bl/6 J mice.
2-phenylglycine (FIG. 28) and gabapentin (FIG. 29) were not as efficacious as pregabalin although they both had maximum IOP reductions of −8% and areas under the curve of −14% hr.

IOP [3] = test: IOP lowering by pregabalin HPMC eye drops in rabbits; type: in vivo; conditions: 0.9% pregabalin in HPMC eye drops, Dutch belted rabbits
Source text: FIG. 5: Pregabalin (0.9%) suspended in hydroxypropyl methylcellulose (HPMC) lowers IOP by 23% in Dutch belted rabbits (n=5).
(§1) It is also modestly present in the CM. Based upon these collective data, it appears that CACNA2D1 regulates IOP (FIG. 3). Pregabalin, or other gabapentinoid drugs, binds to the CACNA2D1 subunit of the calcium channel. The binding of the drug mitigates the flux of calcium through the α1 pore of the calcium channel, reducing the level of intracellular calcium. Since Cacna2d1 modulates IOP, pregabalin, a gabapentinoid drug with high specificity for CACNA2D1, was evaluated for its ability to affect IOP. […] The 1.2% pregabalin eye drops extended the duration of the IOP-lowering effect of pregabalin above that obtained with 0.6% pregabalin. Because there was no significant difference in the percent reduction of IOP between 0.9 and 1.2% pregabalin, we selected 0.9% as the minimal concentration required to produce the maximum reduction in IOP. Expanding this analysis to an additional species, we observed a similar IOP-lowering response (22.1±2.8%) in Dutch belted rabbits after instillation of 0.9% pregabalin eye drops (FIG. 5).

IOP [4] = test: IOP lowering by pregabalin HPMC eye drops in mice (dose response); type: in vivo, B6 mice
Source text: 0.9% is the minimum concentration that gives maximum effect (n=5).
as §1

## NC(=O)c1ncn([C@@H]2O[C@H](CO)[C@@H](O)[C@H]2O)n1 [Ribavirin, 113-D-ribofuranosyl-1H-1,2,4-triazole-3-carboxamide]
[1]
  solubility in water: freely soluble in water

## NC(C(=O)O)c1ccccc1 (stereo not shown) [2-phenylglycine]
IOP [2]
  area under the curve: −14 % hr
  maximum IOP reduction: −8%

## CC(C)C[C@H](CN)CC(=O)O [Pregabalin, pregabalin]
IOP [2]
  area under the curve: 65 % hr
  maximum IOP reduction: 17.3%
  time at which IOP returned to baseline: ≤ 6 h
IOP [3]
  IOP-lowering response (IOP reduction): 23%
IOP [3]; listed as pregabalin
  IOP-lowering response (IOP reduction): 22.1±2.8%
IOP [4]; drops containing 0.3% pregabalin suspended in HPMC, topical, B6 mice
  IOP-lowering effect compared to control: no IOP-lowering effect
IOP [4]; pregabalin 0.3-1.2% suspended in HPMC, eye drops, mice
  IOP reduction, dose dependence: dose-dependent manner
IOP [4]; pregabalin in HPMC eye drops, B6 mice, plateau, no significant difference 0.9 vs 1.2%
  minimal concentration required to produce the maximum reduction in IOP: 0.9%

## NCC1(CC(=O)O)CCCCC1 [gabapentin]
IOP [2]
  area under the curve: −14 % hr
  maximum IOP reduction: −8%
